Source: patent US20210009542A1 (Calico Life Sciences LLC, priority 2018, published 2021)
Like-named read-outs stand apart in the source and are kept apart here.

Key:
[1] = system: B16F10 mouse melanoma cells; assay: B16F10 IFNγ-induced cellular growth inhibition assay; type: cell-based; conditions: Mus musculus, B16-F10, 33 μM compound
How it was run: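 B16F10 cells (500/well, DMEM + 10% FBS) dosed in triplicate at 100 μM to 0.001 μM (0.1% DMSO) with or without 0.5 ng/mL final mouse IFNγ. Confluence imaged every 6 h for 5 days; % growth inhibition calculated versus DMSO/with-IFNγ control once DMSO/no-IFNγ wells exceeded 95% confluence.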

[2] = target: T1, His tagged full-length PTP1B protein (Homo sapiens, UniProt P18031); assay: Mobility shift assay (MSA) for potency of PTP1B inhibitors; type: biochemical
T1 construct: made in house
T1 sequence (P18031 with tags, fused parts or gaps): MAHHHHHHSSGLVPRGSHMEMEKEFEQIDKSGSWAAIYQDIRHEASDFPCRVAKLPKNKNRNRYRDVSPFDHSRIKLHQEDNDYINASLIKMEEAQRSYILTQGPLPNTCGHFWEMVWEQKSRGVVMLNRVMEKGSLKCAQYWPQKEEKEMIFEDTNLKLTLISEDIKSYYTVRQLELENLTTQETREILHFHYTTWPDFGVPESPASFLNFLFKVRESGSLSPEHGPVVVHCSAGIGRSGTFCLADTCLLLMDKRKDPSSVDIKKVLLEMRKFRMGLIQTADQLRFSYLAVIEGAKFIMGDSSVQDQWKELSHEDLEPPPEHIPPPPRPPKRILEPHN
Experimental: The enzymatic assay used to determine activity is a mobility shift assay using a LabChip EZ Reader by Caliper Life Sciences. The enzymatic reaction was carried out in assay buffer (50 mM HEPES pH 7.5, 1 mM EGTA, 10 mM EDTA, 0.01% Tween® 20, and 2 mM DTT). […] The enzyme (at 0.5 nM) was incubated with compound for 10 minutes at room temperature. […] The % inhibition was then used to calculate the IC50 values.

[3] = target: T2, His tagged PTPN2 (TC45) protein (Homo sapiens, UniProt P17706); assay: Mobility shift assay (MSA) for potency of PTPN2 inhibitors; type: biochemical; conditions: read-out: PTPN2 MSA IC50
T2 construct: made in house
T2 sequence (P17706 with tags, fused parts or gaps isoform P17706-2): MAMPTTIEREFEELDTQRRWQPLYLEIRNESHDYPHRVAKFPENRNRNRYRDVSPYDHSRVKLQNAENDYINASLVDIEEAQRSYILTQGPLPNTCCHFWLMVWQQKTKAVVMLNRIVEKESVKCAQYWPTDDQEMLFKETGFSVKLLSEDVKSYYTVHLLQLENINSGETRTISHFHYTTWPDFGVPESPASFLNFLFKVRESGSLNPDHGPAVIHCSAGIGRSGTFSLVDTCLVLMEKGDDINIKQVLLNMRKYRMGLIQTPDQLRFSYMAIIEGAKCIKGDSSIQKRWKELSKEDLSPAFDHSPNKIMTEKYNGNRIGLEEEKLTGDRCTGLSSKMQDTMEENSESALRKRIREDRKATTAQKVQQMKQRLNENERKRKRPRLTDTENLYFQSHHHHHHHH
How it was run: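 His-tagged PTPN2 TC45 (0.5 nM) was preincubated with compound (12-point, 1:3) for 10 min at room temperature in 50 mM HEPES pH 7.5, 1 mM EGTA, 10 mM EDTA, 0.01% Tween 20, 2 mM DTT. OG488-labelled phospho-insulin-receptor peptide ([…]) was then added for 10 min. After quenching, dephosphorylation was measured by microfluidic mobility shift and IC50 derived from % inhibition.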

[4] = +0.5 ng/mL IFNγ, relative to DMSO control, read-out: % B16F10 growth inhibition (+0.5 ng/mL IFNγ) @ 33 μM
[5] = no IFNγ, read-out: % B16F10 growth inhibition (no IFNγ) @ 33 μM

Structure (SMILES)	IC50 [2] [nM]	inhibition at 33 µM [1, 4] [%]	inhibition at 33 µM [1, 5] [%]	IC50 [3] [nM]
O=C1CN(c2c(O)cc3ccc(OCCC4CCNCC4)cc3c2F)S(=O)(=O)N1 [Compound 108, 5-{1-fluoro-3-hydroxy-7-[2-(piperidin-4-yl)ethoxy]naphthalen-2-yl}-1λ^6,2,5-thiadiazolidine-1,1,3-trione]	1 to 10	25 to 59	< 25	1 to 10
CC(C)N1CCC(F)(COc2ccc3cc(O)c(N4CC(=O)NS4(=O)=O)c(F)c3c2)C1 (stereo not shown) [Compound 109, 5-(1-fluoro-7-{[3-fluoro-1-(propan-2-yl)pyrrolidin-3-yl]methoxy}-3-hydroxynaphthalen-2-yl)-1λ^6,2,5-thiadiazolidine-1,1,3-trione]	10 to 100	< 25	< 25	1 to 10
O=C1CN(c2c(O)cc3ccc(OCC4(F)CCNC4)cc3c2F)S(=O)(=O)N1 (stereo not shown) [Compound 110, 5-{1-fluoro-7-[(3-fluoropyrrolidin-3-yl)methoxy]-3-hydroxynaphthalen-2-yl}-1λ^6,2,5-thiadiazolidine-1,1,3-trione]	10 to 100	60 to 90	< 25	1 to 10
NC12CC(CCOc3ccc4cc(O)c(N5CC(=O)NS5(=O)=O)c(F)c4c3)(C1)C2 [Compound 121, 5-{7-[2-(3-aminobicyclo[1.1.1]pentan-1-yl)ethoxy]-1-fluoro-3-hydroxynaphthalen-2-yl}-1λ^6,2,5-thiadiazolidine-1,1,3-trione]	1 to 10	60 to 90	< 25	1 to 10
CN(C)CCNc1ccc2cc(O)c(N3CC(=O)NS3(=O)=O)c(F)c2c1 [Compound 122, 5-(7-{[2-(dimethylamino)ethyl]amino}-1-fluoro-3-hydroxynaphthalen-2-yl)-1λ^6,2,5-thiadiazolidine-1,1,3-trione]	10 to 100	60 to 90	< 25	10 to 100
CS(=O)(=O)N1CCC(Nc2ccc3cc(O)c(N4CC(=O)NS4(=O)=O)c(F)c3c2)C1 (stereo not shown) [Compound 126, 5-(1-fluoro-3-hydroxy-7-{[1-(methanesulfonyl)pyrrolidin-3-yl]amino}naphthalen-2-yl)-1λ^6,2,5-thiadiazolidine-1,1,3-trione]	1 to 10	60 to 90	< 25	1 to 10
CN(C)CCOc1ccc2cc(O)c(N3CC(=O)NS3(=O)=O)c(F)c2c1 [Compound 131, 5-{7-[2-(dimethylamino)ethoxy]-1-fluoro-3-hydroxynaphthalen-2-yl}-1λ^6,2,5-thiadiazolidine-1,1,3-trione]	10 to 100	> 90	< 25	1 to 10
CC(O)CCOc1ccc2cc(O)c(N3CC(=O)NS3(=O)=O)c(F)c2c1 (stereo not shown) [Compound 156, 5-[1-fluoro-3-hydroxy-7-(3-hydroxybutoxy)naphthalen-2-yl]-1λ^6,2,5-thiadiazolidine-1,1,3-trione]	1 to 10	60 to 90	< 25	< 1

Further lines, with some results ahead:

IC50 [2] [nM]	Structure (SMILES)	inhibition at 33 µM [1, 4] [%]	inhibition at 33 µM [1, 5] [%]	IC50 [3] [nM]
1 to 10	O=C1CN(c2c(O)cc3ccc(OCC(O)C4CC4)cc3c2F)S(=O)(=O)N1 (stereo not shown) [Compound 150, 5-[7-(2-cyclopropyl-2-hydroxyethoxy)-1-fluoro-3-hydroxynaphthalen-2-yl]-1λ^6,2,5-thiadiazolidine-1,1,3-trione]	> 90	< 25	1 to 10
10 to 100	CC(C)CC(=O)Nc1ccc2cc(O)c(N3CC(=O)NS3(=O)=O)c(F)c2c1 [Compound 157, N-[8-fluoro-6-hydroxy-7-(1,1,4-trioxo-1λ^6,2,5-thiadiazolidin-2-yl)naphthalen-2-yl]-3-methylbutanamide]	60 to 90	< 25	1 to 10
< 1	O=C1CN(c2c(O)cc3ccc(OCCC4CC4(F)F)cc3c2F)S(=O)(=O)N1 (stereo not shown) [Compound 192, 5-{7-[2-(2,2-difluorocyclopropyl)ethoxy]-1-fluoro-3-hydroxynaphthalen-2-yl}-1λ^6,2,5-thiadiazolidine-1,1,3-trione]	60 to 90	< 25	< 1
1 to 10	O=C1CN(c2c(O)cc3ccc(OCC4CC4(F)F)cc3c2F)S(=O)(=O)N1 (stereo not shown) [Compound 210, 5-{7-[(2,2-difluorocyclopropyl)methoxy]-1-fluoro-3-hydroxynaphthalen-2-yl}-1λ^6,2,5-thiadiazolidine-1,1,3-trione]	> 90	< 25	< 1
1 to 10	O=C1CN(c2c(O)cc3ccc(OCCC4CCCO4)cc3c2F)S(=O)(=O)N1 (stereo not shown) [Compound 213, 5-{1-fluoro-3-hydroxy-7-[2-(oxolan-2-yl)ethoxy]naphthalen-2-yl}-1λ^6,2,5-thiadiazolidine-1,1,3-trione]	60 to 90	< 25	< 1
> 100	O=C1CN(c2c(O)cc3ccc(C4CCCOC4)cc3c2F)S(=O)(=O)N1 (stereo not shown) [Compound 249, 5-[1-fluoro-3-hydroxy-7-(oxan-3-yl)naphthalen-2-yl]-1λ^6,2,5-thiadiazolidine-1,1,3-trione]	60 to 90	< 25	1 to 10
> 100	O=C1CN(c2c(O)cc3ccc(OCC4CCCO4)cc3c2F)S(=O)(=O)N1 (stereo not shown) [Compound 254, 5-{1-fluoro-3-hydroxy-7-[(oxolan-2-yl)methoxy]naphthalen-2-yl}-1λ^6,2,5-thiadiazolidine-1,1,3-trione]	60 to 90	< 25	1 to 10
> 100	O=C1CN(c2c(O)cc3ccc(C4CCOC4)cc3c2F)S(=O)(=O)N1 (stereo not shown) [Compound 255, 5-[1-fluoro-3-hydroxy-7-(oxolan-3-yl)naphthalen-2-yl]-1λ^6,2,5-thiadiazolidine-1,1,3-trione]	60 to 90	< 25	1 to 10
1 to 10	O=C1CN(c2c(O)cc3ccc(CC4CCCN(S(=O)(=O)C5CC5)C4)cc3c2F)S(=O)(=O)N1 (stereo not shown) [Compound 259, 5-(7-{[1-(cyclopropanesulfonyl)piperidin-3-yl]methyl}-1-fluoro-3-hydroxynaphthalen-2-yl)-1λ^6,2,5-thiadiazolidine-1,1,3-trione]	< 25	< 25	1 to 10
1 to 10	O=C1CN(c2c(O)cc3ccc(CC4CCN(S(=O)(=O)C5CC5)C4)cc3c2F)S(=O)(=O)N1 (stereo not shown) [Compound 261, 5-(7-{[1-(cyclopropanesulfonyl)pyrrolidin-3-yl]methyl}-1-fluoro-3-hydroxynaphthalen-2-yl)-1λ^6,2,5-thiadiazolidine-1,1,3-trione]	25 to 59	< 25	1 to 10
> 100	O=C1CN(c2c(O)cc3ccc(C4=CCOC4)cc3c2F)S(=O)(=O)N1 [Compound 263, 5-[7-(2,5-dihydrofuran-3-yl)-1-fluoro-3-hydroxynaphthalen-2-yl]-1λ^6,2,5-thiadiazolidine-1,1,3-trione]	60 to 90	< 25	< 1
